Experimental data as given in US10377694B2, “Bi-aromatic propynyl compounds, pharmaceutical and cosmetic compositions containing them and uses thereof” (GALDERMA RESEARCH & DEVELOPMENT, priority 2016, dated 2019).
pKd: −log10 of the molar value.

Tests used:
Assay in all cases: Transactivation test (apparent Kd by Schild regression versus reference antagonist), luciferase reporter in HeLa cells
Assay type in all cases: cell-based
[1] = biological target: T1, RAR beta (Homo sapiens, UniProt P10826); details: HeLa stable transfectants ERE-βGlob-Luc-SV-Neo and RAR beta ER-DBD-puro, 18 hours incubation, read-out: RAR beta Kdapp
T1 sequence (P10826 183-417 limits assumed): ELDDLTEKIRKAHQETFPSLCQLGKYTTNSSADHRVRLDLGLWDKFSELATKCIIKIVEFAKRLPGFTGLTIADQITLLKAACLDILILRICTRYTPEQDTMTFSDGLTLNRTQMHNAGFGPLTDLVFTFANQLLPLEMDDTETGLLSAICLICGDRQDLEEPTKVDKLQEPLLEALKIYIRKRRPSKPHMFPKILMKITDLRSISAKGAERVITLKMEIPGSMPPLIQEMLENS
Procedure: (§1) Activation of receptors by an agonist (activator) in HeLa cells leads to the expression of a reporter gene, luciferase, which generates light in the presence of a substrate. Therefore the activation of receptors can be measured by quantifying the luminescence produced after incubation of the cells in the presence of a reference antagonist. The activator products displace the antagonist from its site, thus permitting the receptor to be activated. The activity is measured by quantifying the increase in light produced. This measurement determines the activating activity of the useful compound in the invention.
(§2) In this study, a constant is determined that represents the affinity of the molecule for the receptor. This value can fluctuate according to the basal activity and expression of the receptor; it is designated apparent Kd (KdApp).
(§3) To determine this constant, cross curves are created of the product to be tested (4′-(3-hydroxy-propyl)-3′-(5,5,8,8-tetramethyl-5,6,7,8-tetrahydro-naphthalen-2-yl)-biphenyl-4-carboxylic acid and 4′-(2,3-dihydroxy-propyl)-3′-(5,5,8,8-tetramethyl-5,6,7,8-tetrahydro-naphtalen-2-yl)-biphenyl-4-carboxylic) acid versus a reference antagonist also called reference ligand, 4-(5,5-dimethyl-8-p-tolyl-5,6-dihydro-naphthalen-2-ylethynyl)-benzoic acid. The product to be tested is used at 10 concentrations and the reference antagonist at 7 concentrations. In each well (of a 96-well plate), the cells are in contact with one concentration of the product to be tested and one concentration of the reference antagonist.
(§4) Full agonist controls, also called 100% controls, (4-[2-(5,5,8,8 tetramethyl-5,6,7,8 tetrahydronaphthalene-2-yl)propenyl]-benzoic acid) and inverse agonist controls, also called 0% controls, (4-{(E)-3-[4-(4-tert-butyl-phenyl)-5,5,8,8-tetramethyl-5,6,7,8-tetrahydro-naphthalen-2-yl]-3-oxo-propenyl}-benzoic acid) are also measured.
(§5) These cross curves allow determining the AC50 (concentration at which 50% activation of the receptor is observed) of the reference ligand at different concentrations of the product to be tested. These AC50s are used to calculate the Schild regression by plotting a line conforming to the Schild equation (“Quantitation in receptor pharmacology” Terry P. Kenakin, Receptors and Channels, 2001, 7, 371-385).
(§6) In the case of an agonist, the AC50 is calculated by plotting the curve of the product at the concentration of the reference ligand giving 80% activation. The percentage of activation that corresponds to the maximum level of activity obtained is also measured.
(§7) The HeLa cell lines used are stable transfectants containing the plasmids ERE-βGlob-Luc-SV-Neo (reporter gene) and RAR (α, β, γ) ER-DBD-puro. These cells are inoculated onto 96-well plates in an amount of 10,000 cells per well in 100 μl DMEM medium with no phenol red and supplemented with 10% delipidated fetal bovine serum. The plates are then incubated at 37° C., 7% CO2 for 4 hours.
(§8) The different dilutions of the product to be tested, the reference ligand (4-(5,5-dimethyl-8-p-tolyl-5,6-dihydro-naphthalen-2-ylethynyl)-benzoic acid), the 100% control (100 nM 4-[2-(5,5,8,8 tetramethyl-5,6,7,8 tetrahydronaphthalene-2-yl)propenyl]-benzoic acid) and the 0% control (500 nM 4-{(E)-3-[4-(4-tert-butyl-phenyl)-5,5,8,8-tetramethyl-5,6,7,8-tetrahydro-naphthalen-2-yl]-3-oxo-propenyl}-benzoic acid) are added in an amount of 5 μl per well. The plates are then incubated 18 hours at 37° C., 7% CO2.
(§9) The culture medium is removed by turning over and 100 μl of a 1:1 PBS (phosphate buffer solution)/luciferin mixture is added to each well. After 5 minutes, the plates are read by the luminescence reader.

[2] = biological target: T2, RAR alpha (Homo sapiens, UniProt P10276); details: HeLa stable transfectants ERE-βGlob-Luc-SV-Neo and RAR alpha ER-DBD-puro, 18 hours incubation, read-out: RAR alpha Kdapp
T2 sequence (P10276 183-417 limits assumed): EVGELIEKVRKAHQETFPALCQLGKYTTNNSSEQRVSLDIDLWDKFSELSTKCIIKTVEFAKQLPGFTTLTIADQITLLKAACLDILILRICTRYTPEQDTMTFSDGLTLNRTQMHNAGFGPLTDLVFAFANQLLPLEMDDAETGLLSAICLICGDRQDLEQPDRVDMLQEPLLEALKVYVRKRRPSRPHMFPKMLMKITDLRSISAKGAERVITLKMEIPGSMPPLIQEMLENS
Procedure: as §1, §2, §3, §4, §5, §6, §7, §8, §9

[3] = biological target: T3, RAR gamma (Homo sapiens, UniProt P13631); details: HeLa stable transfectants ERE-βGlob-Luc-SV-Neo and RAR gamma ER-DBD-puro, 18 hours incubation, read-out: RAR gamma Kdapp
T3 sequence (P13631 185-454 limits assumed): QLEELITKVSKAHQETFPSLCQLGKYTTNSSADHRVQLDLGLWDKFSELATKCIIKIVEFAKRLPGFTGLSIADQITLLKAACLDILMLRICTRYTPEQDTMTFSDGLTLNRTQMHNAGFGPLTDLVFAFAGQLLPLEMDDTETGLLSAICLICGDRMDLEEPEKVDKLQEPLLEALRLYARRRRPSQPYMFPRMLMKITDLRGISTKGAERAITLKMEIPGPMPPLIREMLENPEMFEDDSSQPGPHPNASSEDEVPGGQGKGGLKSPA
Procedure: as §1, §2, §3, §4, §5, §6, §7, §8, §9

**Q.** With `CC1(C)CCC(C)(C)c2c(O)cc(C#Cc3ccc(C(=O)O)c(O)c3)cc21` [Compound 1] as the compound, how does the pKd [1] read?
**A.** 8.40

**Q.** And the pKd [2]?
**A.** 6.92

**Q.** What about the pKd [3] of the same compound?
**A.** 8.40

**Q.** Which results are given for `CC1(C)CCC(C)(C)c2c(OCC3CC3)cc(C#Cc3ccc(C(=O)O)cn3)cc21` [Compound 2]?
**A.** pKd [1]: 8.70; pKd [2]: 7.52; pKd [3]: 8.40
